Assays:
[1] = system: S49 mouse lymphoma cells; experiment: cAMP formation in S49 lymphoma cells (β-adrenergic agonist activity); format: cell-based; conditions: for activity greater than that of isoproterenol / activity in words: S49 cell assay; for activity greater than that of isoproterenol: relative to isoproterenol; for EC50: Mus musculus, catecholamine derivative, read-out: KA (concentration of the catecholamine for approximately half maximal stimulation of cAMP concentration)
Description: The in vitro testing of cAMP formation in S49 lymphoma cells is a well documented and accepted test for indicating and anticipating β-adrenergic activity in the mammalian body.
Such testing procedures and their significance has been set forth in a number of prior publications, e.g. Shear et al., J. Biol. Chem.; 251, 7572 (1976); Coffino, et al., In Vitro, 14, No. 1, 140 et.seq. (1978); and in Johnson, et al.; Molecular Pharmacology, 15, 16-27 (1978). The tests measure increased cyclic adenosine monophosphate (cAMP) concentration in the S49 cells. In Table 1, KA indicates the concentration of the catecholamine for approximately half maximal stimulation of cAMP concentration. Emax is a measure of the maximal response (cAMP concentration) of the S49 cells to the respective catecholamines regardless of how high the concentration of the catecholamines may become. The Table compares the response of the cells to the particular catecholamine derivatives with the cells' response to isoproterenol. Thus a measure of the relative biological activity can be obtained.

[2] = target: T1, S49 cells (Mus musculus, UniProt P18762); experiment: KD in S49 cells; format: binding; conditions: relative to isoproterenol
T1 construct: endogenous in cells; host or cells: S49 lymphoma cells
T1 sequence (P18762 whole entry): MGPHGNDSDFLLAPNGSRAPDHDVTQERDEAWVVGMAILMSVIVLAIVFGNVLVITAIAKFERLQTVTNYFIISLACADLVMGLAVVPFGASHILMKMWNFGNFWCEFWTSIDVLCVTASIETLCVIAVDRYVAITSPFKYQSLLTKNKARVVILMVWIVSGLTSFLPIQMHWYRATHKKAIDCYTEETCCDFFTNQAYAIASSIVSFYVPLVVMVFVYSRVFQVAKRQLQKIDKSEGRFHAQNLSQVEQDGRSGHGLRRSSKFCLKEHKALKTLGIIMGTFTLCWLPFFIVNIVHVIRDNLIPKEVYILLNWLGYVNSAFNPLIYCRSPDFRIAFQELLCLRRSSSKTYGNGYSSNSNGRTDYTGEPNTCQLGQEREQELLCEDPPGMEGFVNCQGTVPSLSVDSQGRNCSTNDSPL
Description: (§1) A large dependence of activity on the length of the methylene chain i.e., (CH2)n is seen with the toluides (Compounds 10-14). Of the compounds noted, peak activity is seen in the case of n=4 (Compound 12), which has an activity approximately two orders of magnitude greater than that of isoproterenol.

[3] = target: T2, C6 cells (Rattus norvegicus, UniProt P18090); experiment: KD in C6 cells; format: binding; conditions: relative to isoproterenol
T2 construct: endogenous in cells; host or cells: C6 cells
T2 sequence (P18090 whole entry): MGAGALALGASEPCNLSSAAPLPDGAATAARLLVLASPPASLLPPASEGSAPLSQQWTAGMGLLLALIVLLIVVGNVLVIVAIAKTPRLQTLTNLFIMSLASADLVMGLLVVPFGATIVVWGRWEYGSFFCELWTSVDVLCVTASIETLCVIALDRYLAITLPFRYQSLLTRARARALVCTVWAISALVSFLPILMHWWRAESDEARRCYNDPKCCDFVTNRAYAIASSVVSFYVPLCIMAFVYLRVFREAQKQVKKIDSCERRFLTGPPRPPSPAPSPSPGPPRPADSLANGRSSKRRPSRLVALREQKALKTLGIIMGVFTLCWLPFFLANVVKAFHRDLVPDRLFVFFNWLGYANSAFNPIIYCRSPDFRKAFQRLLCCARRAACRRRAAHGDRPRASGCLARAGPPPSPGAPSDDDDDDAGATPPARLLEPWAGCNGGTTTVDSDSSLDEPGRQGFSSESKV
Description: as §1

[4] = system: rats; experiment: blood pressure and heart rate changes in rats on administration of the drug; format: in vivo; conditions: rat, relative to isoproterenol

| EC50 ([1]; S49 lymphoma cells) [nM] | SMILES | further results |
| --- | --- | --- |
|  | CC(C)NCC(O)c1ccc(O)c(O)c1 (racemic) [d,l-Isoproterenol, reference compound] | KA of d,l-isoproterenol ([1]; S49 lymphoma cells, comparison with the derivative on the same table line): 45 pM |
|  | CCCCc1ccc(NC(=O)CCCCC(C)NCC(O)c2ccc(O)c(O)c2)cc1 (stereo not shown) [Compound 15] | activity greater than that of isoproterenol [1]: at least 3 orders of magnitude |
| 370 | CC(CCCC(=O)O)NCC(O)c1ccc(O)c(O)c1 (stereo not shown) [Compound 7] |  |
| 0.18 | CCCCNC(=O)CCCCC(C)NCC(O)c1ccc(O)c(O)c1 (stereo not shown) [Compound 19] |  |
| 350 | CC(CCCCCC(=O)O)NCC(O)c1ccc(O)c(O)c1 (stereo not shown) [Compound 9] |  |
| 350 | CC(CCCCC(=O)O)NCC(O)c1ccc(O)c(O)c1 (stereo not drawn) [Compound 8, 6-(β-3,4-Dihydroxyphenyl-β-hydroxy)-ethylamino heptanoic acid] |  |
| 0.056 | Cc1ccc(NC(=O)CCCCC(C)NCC(O)c2ccc(O)c(O)c2)cc1 (stereo not drawn) [Compound 12, 6-(β-3,4-dihydroxyphenyl-β-hydroxy)-ethylamino Heptanoic Acid p-Toluide] | KD lower than for isoproterenol [2]: 2 orders of magnitude; activity in words [1]: peak activity; KD lower than for isoproterenol [3]: 2 orders of magnitude; times more active than isoproterenol [4]: 50-70 times |
| 8 | Cc1ccc(NC(=O)CCCC(C)NCC(O)c2ccc(O)c(O)c2)cc1 (stereo not shown) [Compound 11] |  |
| 0.26 | CC(CCCCC(=O)NC1CCCCC1)NCC(O)c1ccc(O)c(O)c1 (stereo not shown) [Compound 20] |  |
| 13 | COc1ccc(NC(=O)CCCCC(C)NCC(O)c2ccc(O)c(O)c2)cc1 (stereo not shown) [Compound 16] | activity in words [1]: approximately the same activity as isoproterenol |
| 22 | Cc1ccc(NC(=O)CCCCCC(C)NCC(O)c2ccc(O)c(O)c2)cc1 (stereo not shown) [Compound 14] |  |
|  | CC(CCCCC(=O)Nc1ccc(C(F)(F)F)cc1)NCC(O)c1ccc(O)c(O)c1 (stereo not shown) [Compound 17] | activity greater than that of isoproterenol [1]: at least 3 orders of magnitude |
| 3.5 | Cc1ccc(NC(=O)CCC(C)NCC(O)c2ccc(O)c(O)c2)cc1 (stereo not shown) [Compound 10] |  |
| 1600 | CC(CCC(=O)O)NCC(O)c1ccc(O)c(O)c1 (stereo not shown) [Compound 6] |  |

Source: patent US4337207A, “Biologically active catecholamine derivatives” (Regents of the University of California, priority 1980, dated 1982)
